The source of these data is patent US20240261317A1, “METHODS OF TREATING MEDICAL CONDITIONS AND INHIBITING LINE1 REVERSE TRANSCRIPTASEUSING A SUBSTITUTED 4-FLUORO-2,5-DIHYDROFURANYL PHOSPHONIC ACID OR RELATED COMPOUND” (ROME Therapeutics, Inc., priority 2021, published 2024).

Series [1] deals with T1, LINE1 reverse transcriptase (Homo sapiens, UniProt O00370). The experiment in a line: Stable artificial-intron Cis LINE1 reporter assay in HeLa Tet-On 3G cells. It counts as cell-based. Set-up: expressed in transfected cells; host or cells: HeLa Tet-On 3G (Takara, cat no 631183). An excerpt: A stable HeLa Tet-On 3G (Takara, cat no 631183) cell line expressing a bi-directional inducible LINE1 construct was generated as described in Xie, Y. et al. “Cell division promotes efficient retrotransposition in a stable L1 reporter cell line,” Mobile DNA (2013) 4:10. Single cell clones were screened for high Luciferase expression and the highest expression Firefly expressing clone was chosen for compound testing.
Test compounds were serially diluted in DMSO and spotted in 96-well plates. Subsequently the HeLa L1 artificial-intron reporter cells were plated into the compound-containing wells (8,000 cells/well), and the cells were induced for reporter expression with doxycycline (Sigma cat no D9891) at a final concentration of 500 ng/mL. Luminescence was measured 72 h after plating using the Dual-Glo Luciferase Assay System (Promega cat no E2940) following the manufacturer's instructions. The Firefly Luciferase activity was used to report LINE1 activity.

In series [2] the target is T1, LINE1 reverse transcriptase. Put plainly: Transient artificial-intron Cis LINE1 reporter assay (FLuc/RLuc ratio). Particulars: HEK 293 cells. It counts as cell-based. Set-up: expressed in transfected cells. On the procedure: (§1) Intron-disrupted Firefly luciferase (FLuc) expression cassettes were generated as described by Xie, Y. et al. “Characterization of L1 retrotransposition with high-throughput dual-luciferase assays,” Nucleic Acid Res. (2011) Vol. 39, No. 3, e16. In addition, the plasmid contained an intact Renilla luciferase (RLuc) expression cassette on the vector backbone, in order to normalize transfection efficiency and measure potential cell toxicity.
(§2) HEK 293 cells were seeded in 96-well plates at 1,000 cells/well in 55 μL and grown for 24 hours. Cells were transfected with FuGeneHD (Promega) following the manufacturer's protocol. Each well received 0.133 ng plasmid, 0.4 μL FuGeneHD reagent, and 4.5 μL GlutaMAX-I-supplemented Opti-MEM I reduced-serum medium (Invitrogen). Cells were simultaneously treated with test compound serially diluted starting at 100 μM in a 3-fold dilution dose response.
(§3) Luminescence was measured using the Dual-Glo Luciferase Assay System (Promega) following the manufacturer's instructions. The ratio between FLuc and RLuc gene expression was used to report LINE1 activity.
For orientation: A reporter such as luciferase makes a cellular process visible.

Series [3] deals with T2, HERV-K reverse transcriptase (2-596)-8His protein (Homo sapiens, UniProt V9H0F6).
T2 construct: fused on or other part: C-terminal 8His tag
The experiment in a line: Homogeneous time-resolved fluorescence (HTRF) HERV-K RT assay. It counts as biochemical. Particulars: tested as tri(ammonium) salt, read-out: IC50 for inhibition of HERV-K reverse transcriptase. On the procedure: The HERV-K reverse transcriptase homogeneous time-resolved fluorescence (HTRF) assay was performed in a 384-well format with HERV-K reverse transcriptase (2-596)-8His protein. Baculoviruses were created using Bac-to-Bac technology (Invitrogen). pFastBac donor plasmids containing HERV-K reverse transcriptase sequence (NCBI GenBank number AAC63291.1, J. Virology (1999) Vol. 73, No. 3, pp. 2365-2375) were transformed into DH10 Bac cells following the manufacturer's instructions. Recombinant bacmids were then isolated clonally and transfected into SF9 cells with lipofectin. HERV-K reverse transcriptase was expressed in the SF9 insect cells and then purified using immobilized metal affinity chromatography (IMAC) followed by size-exclusion chromatography (SEC). […]
After incubating at 25° C. for 30 minutes, the detection reagent 20 mM EDTA with streptavidin-terbium cryptate (Cisbio Bioassay) in the PPI buffer (Cisbio Bioassay) was added, and the mixture was incubated at 25° C. for 60 minutes. At the end of the incubation, fluorescence was read at ex/em=337/485 nm and ex/em=337/520 nm on an Envision 2104 plate reader (Perkin Elmer). The fluorescence ratio at 520/485 nm was used for the calculation. […] The IC50 was calculated by fitting the compound dose inhibition curve with a 4-parameter non-linear regression equation.
A general note: Time-resolved FRET reads energy transfer from a long-lived donor to a nearby acceptor.

The target of series [4] is T3, recombinant MBP-tagged LINE1 protein (238-1061) (Homo sapiens, UniProt O00370).
T3 construct: recombinant MBP-tagged LINE1 protein (238-1061); made in house
Put plainly: Homogeneous time-resolved fluorescence (HTRF) LINE1 RT assay. It is filed as biochemical. Conditions: tested as tri(ammonium) salt, read-out: IC50 for inhibition of LINE1 reverse transcriptase. On the procedure: The LINE1 reverse transcriptase homogeneous time-resolved fluorescence (HTRF) assay was performed with recombinant MBP-tagged LINE1 protein (238-1061) (generated and purified according to procedures in Dai L. et al. BMC Biochemistry 2011; 12:18) in a 384-well format. Test compound was serially diluted in DMSO and further diluted in the assay buffer (50 mM Tris-HCl, 50 mM KCl, 10 mM MgCl2, 10 mM DTT, pH 8.1) to achieve a final DMSO concentration of 1%. The serially diluted compound was mixed with 64 ng/well of LINE1 enzyme, 5 nM of pre-annealed template/biotin-primer pair (synthesized at Generay Biotechnology), 10 nM of Fluorescein-12-dATP fluorescent probe (Perkin Elmer), and 1 μM dGTP/dCTP/dTTP (Thermo Fisher Scientific) in the assay buffer. The template/biotin-primer sequences were as follows:
After incubating at 25° C. for 60 minutes, the detection reagent (20 mM EDTA with streptavidin-terbium cryptate, Cisbio Bioassay) in the PPI buffer (Cisbio Bioassay) was added, and the mixture was incubated at 25° C. for 30 minutes. At the end of the incubation, fluorescence was read at ex/em=337/485 nm and ex/em=337/520 nm on an Envision 2104 plate reader (Perkin Elmer). The fluorescence ratio at 520/485 nm was used for the calculation. […] The IC50 was calculated by fitting the compound dose inhibition curve with a 4-parameter non-linear regression equation.

The test system of a further series is HEK 293 cells. Put plainly: Transient LINE1 reporter assay, Renilla luciferase (RLuc) control readout for potential cell toxicity. Conditions: even at the highest dose tested (100 μM), FIG. 1. It is filed as cell-based. The procedure: as §1, §2, §3
[5] abbreviates: HeLa L1 artificial-intron reporter cells, doxycycline induced, 72 h, Firefly luciferase, read-out: IC50.
The mark [6] stands for this setting: transient LINE1 reporter, Table 5 of Example 1, read-out: IC50.

SMILES strings stand for the structures.

T2 sequence (V9H0F6 entry or part of it): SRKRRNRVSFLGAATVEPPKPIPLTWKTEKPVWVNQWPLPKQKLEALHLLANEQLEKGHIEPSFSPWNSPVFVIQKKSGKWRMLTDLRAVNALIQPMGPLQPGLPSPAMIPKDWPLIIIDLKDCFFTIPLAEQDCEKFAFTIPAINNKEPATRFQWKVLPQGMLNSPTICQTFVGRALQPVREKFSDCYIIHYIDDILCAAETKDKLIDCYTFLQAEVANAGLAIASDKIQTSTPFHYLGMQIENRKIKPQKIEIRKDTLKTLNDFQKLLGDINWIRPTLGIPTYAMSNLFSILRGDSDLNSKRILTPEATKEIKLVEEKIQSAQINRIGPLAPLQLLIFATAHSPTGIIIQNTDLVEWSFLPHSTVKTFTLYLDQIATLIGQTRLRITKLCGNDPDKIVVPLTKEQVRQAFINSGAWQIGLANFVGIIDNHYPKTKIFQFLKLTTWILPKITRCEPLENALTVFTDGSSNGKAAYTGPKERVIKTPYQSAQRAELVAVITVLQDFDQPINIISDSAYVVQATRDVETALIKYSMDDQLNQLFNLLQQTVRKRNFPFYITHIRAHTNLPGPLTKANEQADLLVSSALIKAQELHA

On to `Nc1nc(F)nc2c1ncn2[C@@H]1O[C@H](OCP(=O)(O)O)C=C1F` [Compound V-1, sodium ((((2R,5R)-5-(6-amino-2-fluoro-9H-purin-9-yl)-4-fluoro-2,5-dihydrofuran-2-yl)oxy)methyl)phosphonate], for which the IC50 in series [1] (setting [5]) is above 0.5 µM.

In turn, `CCOC(=O)[C@H](C)NP(=O)(CO[C@@H]1C=C(F)[C@H](n2cnc3c(N)nc(F)nc32)O1)Oc1ccccc1` (stereo partly drawn) [Compound V-2, ethyl (2S)-2-[({[(2R,5R)-5-(6-amino-2-fluoropurin-9-yl)-4-fluoro-2,5-dihydrofuran-2-yl]oxy}methyl(phenoxy)phosphoryl)amino]propanoate] displayed an IC50 in series [1] above 0.5 µM.

With `CCOC(=O)[C@H](C)N[P@](=O)(CO[C@@H]1C=C(F)[C@H](n2cnc3c(N)ncnc32)O1)Oc1ccccc1` [II-1, ethyl ((S)-((((2R,5R)-5-(6-amino-9H-purin-9-yl)-4-fluoro-2,5-dihydrofuran-2-yl)oxy)methyl)(phenoxy)phosphoryl)-L-alaninate], the IC50 in series [1] (setting [5]) and in series [2] (setting [6]) was below 0.05 µM each time.

Turning to `CCOC(=O)[C@H](C)N[P@@](=O)(CO[C@@H]1C=C(F)[C@H](n2cnc3c(N)ncnc32)O1)Oc1ccccc1` [II-2, ethyl ((R)-((((2R,5R)-5-(6-amino-9H-purin-9-yl)-4-fluoro-2,5-dihydrofuran-2-yl)oxy)methyl)(phenoxy)phosphoryl)-L-alaninate], the IC50 in series [1] (setting [5]) and in series [2] (setting [6]) was below 0.05 µM in each case.

For `Nc1ncnc2c1ncn2[C@@H]1O[C@H](OCP(=O)(O)O)C=C1F` [III-1, Sodium ((((2R,5R)-5-(6-amino-9H-purin-9-yl)-4-fluoro-2,5-dihydrofuran-2-yl)oxy)methyl)phosphonate], the IC50 in series [1] (setting [5]) was above 0.5 µM.

As for `Nc1ncnc2c1ncn2[C@@H]1O[C@H](OCP(=O)(O)OP(=O)(O)OP(=O)(O)O)C=C1F` [IV-1], the figures for the IC50 in series [3] and in series [4] were 0.12 µM and 0.1 µM, respectively.

Take `Nc1ncnc2c1ncn2[C@@H]1O[C@H](OCP(=O)(O)O)C=C1F` [Test Compound]: in series [2] (transient transfection, FIG. 1, read-out: IC50 for inhibition of FLuc (FF/RR)), the IC50 was determined as 1 µM. The “impact on RLuc expression (Renilla)” value with HEK 293 cells is “without any material impact”.
